Laboratory results reported in publication PMC9452538, “The antimicrobial peptide LI14 combats multidrug-resistant bacterial infections” (Communications Biology, 2022).
≈ marks a conversion by molar mass, not a printed value. Bridge positions count the residues as written; N and C are the ends. Ends that are not written are not given here. Peptide text beside a SMILES is read from it.

Tests used:
MDR E. coli B2 = assay: Checkerboard assay with LI14; format: cell-based, Escherichia coli; settings: for FIC index: antibiotic in combination with LI14, checkerboard 8 × 8, 18 h, ≤0.5 = synergy; for MICa of antibiotic: in the absence of LI14; for MICb of antibiotic: in the presence of ¼ MIC of LI14; for Potentiation: antibiotic potentiation in the presence of ¼ MIC of LI14
Description: (§1) Through checkerboard assay using two-fold serially diluted drugs (8 × 8 matrix), we evaluated the synergistic effects of LI14 with different mechanisms of antibiotics. The absorbance of cultures at 600 nm was determined by a Microplate reader after 18 h of incubation with (1.5 × 10^6 CFUs/mL) bacterial suspension. The FIC index (FICI) was calculated by performing two biological replicates for each combination. The formula is as follows: FIC index = FICIa + FICIb = MICab/MICa + MICba/Mb. An FIC index of ≤0.5 indicates synergy.
(§2) a/bMICs of antibiotics in the absence or presence of ¼ MIC of LI14.
(§3) cDegree of antibiotics potentiation in the presence of ¼ MIC of LI14.
(§4) –, none of potentiation activity.

MRSA T144 [1] = assay: Checkerboard assay with LI14; format: cell-based, Staphylococcus aureus; settings: for FIC index: antibiotic in combination with LI14, checkerboard; for MICa of antibiotic: in the absence of LI14; for MICb of antibiotic / Potentiation: in the presence of ¼ MIC of LI14
Description: as §1, §2, §3, §4

MRSA T144 [2] = assay: Neutropenic mouse thigh infection model; format: in vivo, CD-1 mice; settings: AMP 20 mg/kg i.p., 48 h
Description: Female CD-1 mice (n = 6 biologically independent animals per group) were first given cyclophosphamide (two consecutive injections of 150 and 100 mg kg^−1 at 4 and 1 day before infection) to construct neutropenia models. The mice’s right thighs were then injected with 100 μL MRSA T144 or E. coli B2 suspensions (10^5 CFUs per mouse). Post-infection of 1 h, 100 μL LI14 peptide (10 or 20 mg/kg), ampicillin/rifampicin (20 mg/kg) or a combination of LI14 with ampicillin/ rifampicin (10 + 20 mg/kg) were given by intraperitoneal injection. All mice were euthanized 48 h after drug administration, and right thigh muscle tissue was removed aseptically, homogenized, serially diluted, and plated on MHA to qualify bacterial loads after overnight incubation at 37 °C.

[3] = tested on: sensitive E. coli ATCC 25922; assay: Checkerboard assay with LI14; format: cell-based, Escherichia coli; settings: for FIC index: antibiotic in combination with LI14, checkerboard; for MICa of antibiotic: in the absence of LI14; for MICb of antibiotic / Potentiation: in the presence of ¼ MIC of LI14
Description: as §1, §2, §3, §4

MRSA T144 [4] = assay: microbe, parasite or virus in culture; format: cell-based, Staphylococcus aureus; parameters: Antibacterial activity of LI14 derivates: unit not given here; settings: MRSA T144; unit not given
Description: (§5) An antimicrobial activity study was conducted on all peptides against a panel of laboratory bacteria, including ATCC source and clinical isolates with resistance determinants. According to CLSI2021 guidelines, we tested the minimum inhibitory concentrations (MICs) of peptides using standard broth micro-dilutions. Briefly, bacteria grown to exponential phase were diluted in 1:1000 to MHB, subsequently, equivalent amounts of bacterial suspension (1.5 × 10^6 CFUs/mL) were mixed with different concentrations of peptides in a sterilized 96-well microtiter plate (Corning).

S. aureus ATCC 29213 = assay: microbe, parasite or virus in culture; format: cell-based, Staphylococcus aureus; parameters: Antibacterial activity of LI14 derivates: unit not given here; settings: S. aureus 29213; unit not given
Description: as §5

E. coli ATCC 25922 = assay: microbe, parasite or virus in culture; format: cell-based, Escherichia coli; parameters: Antibacterial activity of LI14 derivates: unit not given here; settings: E. coli 25922; unit not given
Description: as §5

[5] = tested on: E. coli B2 (blaNDM-5 + mcr-1); assay: microbe, parasite or virus in culture; format: cell-based, Escherichia coli; parameters: Antibacterial activity of LI14 derivates: unit not given here; settings: E. coli B2; unit not given
Description: as §5

MRSA T144 [6] = format: cell-based, Staphylococcus aureus; settings: T144
Description: MRSA T144 and E. coli B2 in the exponential growth phase were incubated with LI14 peptide supplemented with 10 mM Na^+, K^+, Mg^2+, 10% Dulbecco’s modified Eagle medium (DMEM), and 10% fetal bovine serum (FBS) for 16–18 h. The stability of LI14 was evaluated by the change of its antibacterial activity under different conditions.
LI14 were preincubated for 1 h at various temperatures (40–121 °C), pH (2–12), and proteases (pepsin, trypsin, and papain, final concentration 1 mg/mL). […] Following the incubation with the proteases, the leftover protease was precipitated with acetonitrile and removed by centrifugation at 3000 × g, followed by a MIC test.
Supplementary Table 4 Thermal, pH, salts and protease stability of AMPs against
MRSA T144 and E. coli B2 (MIC, μg/mL).
Treatment MRSA T144 E. coli B2

Row | Compound | Antibacterial activity of LI14 derivates (MRSA T144 [4]) | Antibacterial activity of LI14 derivates (S. aureus ATCC 29213) | Antibacterial activity of LI14 derivates (E. coli ATCC 25922) | Antibacterial activity of LI14 derivates [5] | also measured
1 | CC1(C)S[C@@H]2[C@H](NC(=O)[C@H](N)c3ccccc3)C(=O)N2[C@H]1C(=O)O [Ampicillin] |  |  |  |  | FIC index (MDR E. coli B2): 2; MICa of antibiotic (MDR E. coli B2): > 128 µg/mL; MICb of antibiotic (MDR E. coli B2): > 128 µg/mL; FIC index (MRSA T144 [1]): 0.078; MICa of antibiotic (MRSA T144 [1]): 64 µg/mL; MICb of antibiotic (MRSA T144 [1]): 1 µg/mL; Potentiation (MRSA T144 [1]): 64 fold; Bacterial load in thigh (MRSA T144 [2]; animal 1): 7.62 Log10CFUs/thigh; Bacterial load in thigh (MRSA T144 [2]; animal 2): 7.65 Log10CFUs/thigh; Bacterial load in thigh (MRSA T144 [2]; animal 3): 8.00 Log10CFUs/thigh; Bacterial load in thigh (MRSA T144 [2]; animal 4): 8.03 Log10CFUs/thigh; Bacterial load in thigh (MRSA T144 [2]; animal 5): 7.34 Log10CFUs/thigh; Bacterial load in thigh (MRSA T144 [2]; animal 6): 7.15 Log10CFUs/thigh
2 | C[C@H]1c2cccc(O)c2C(=O)C2=C(O)[C@]3(O)C(=O)C(C(N)=O)=C(O)[C@@H](N(C)C)[C@@H]3[C@@H](O)[C@@H]21 [Doxycycline] |  |  |  |  | FIC index (MDR E. coli B2): 0.25; Potentiation (MDR E. coli B2): 8 fold; MICa of antibiotic (MDR E. coli B2): 32 µg/mL; MICb of antibiotic (MDR E. coli B2): 4 µg/mL; FIC index [3]: 0.25; MICa of antibiotic [3]: 0.5 µg/mL; MICb of antibiotic [3]: 0.063 µg/mL; Potentiation [3]: 8 fold; FIC index (MRSA T144 [1]): 0.188; MICa of antibiotic (MRSA T144 [1]): 16 µg/mL; MICb of antibiotic (MRSA T144 [1]): 1 µg/mL; Potentiation (MRSA T144 [1]): 16 fold
3 | CC[C@H](C)[C@H](NC(=O)[C@H](CCCNC(=N)N)NC(=O)[C@@H]1CSSC[C@H](NC(=O)[C@H](CC(C)C)NC(=O)[C@H](CCCCN)NC(=O)[C@H](CCCCN)NC(=O)[C@@H](N)CC(C)C)C(=O)N[C@@H](CCCNC(=N)N)C(=O)N[C@@H]([C@@H](C)CC)C(=O)N[C@@H](CC(C)C)C(=O)N[C@@H](CCCCN)C(=O)N[C@@H](CCCCN)C(=O)N[C@@H](CC(C)C)C(=O)N1)C(N)=O [LI14 (S-S)] (H-LKKLCRILKKLCRI-NH2; disulfide 5-12 (inferred)) | 4 | 4 | 8 | 4 | MIC (MRSA T144 [6]): 4 µg/mL (≈ 2.32 µM)
4 | CN[C@H](CC(C)C)C(=O)N[C@H]1C(=O)N[C@@H](CC(N)=O)C(=O)N[C@H]2C(=O)N[C@H]3C(=O)N[C@H](C(=O)N[C@H](C(=O)O)c4cc(O)cc(O)c4-c4cc3ccc4O)[C@H](O)c3ccc(c(Cl)c3)Oc3cc2cc(c3O[C@@H]2O[C@H](CO)[C@@H](O)[C@H](O)[C@H]2O[C@H]2C[C@](C)(N)[C@H](O)[C@H](C)O2)Oc2ccc(cc2Cl)[C@H]1O [Vancomycin] |  |  |  |  | FIC index (MDR E. coli B2): 0.078; Potentiation (MDR E. coli B2): 64 fold; MICa of antibiotic (MDR E. coli B2): 128 µg/mL; MICb of antibiotic (MDR E. coli B2): 2 µg/mL; FIC index [3]: 0.375; MICa of antibiotic [3]: 64 µg/mL; MICb of antibiotic [3]: 8 µg/mL; Potentiation [3]: 8 fold; FIC index (MRSA T144 [1]): 2.0; MICa of antibiotic (MRSA T144 [1]): 0.5 µg/mL; MICb of antibiotic (MRSA T144 [1]): 0.5 µg/mL
5 | AKKLCRILKKLCRI-NH2 [LI14-A1, Ala substitute of LI14, position 1] | 64 | 16 | 16 | 4 | 
6 | LAKLCRILKKLCRI-NH2 [LI14-A2, Ala substitute of LI14, position 2] | 16 | 8 | 8 | 4 | 
7 | LKALCRILKKLCRI-NH2 [LI14-A3, Ala substitute of LI14, position 3] | 8 | 8-16 | 16 | 8 | 
8 | LKKACRILKKLCRI-NH2 [LI14-A4, Ala substitute of LI14, position 4] | 64 | 64 | 16-32 | 8 | 
9 | LKKLARILKKLCRI-NH2 [LI14-A5] | 16 | 16 | 4 | 4 | 
10 | LKKLCAILKKLCRI-NH2 [LI14-A6, Ala substitute of LI14, Arg at position 6] | > 128 | > 128 | 128 | 32 | 
11 | LKKLCRALKKLCRI-NH2 [LI14-A7, Ala substitute of LI14, position 7] | 64 | 64 | 32 | 16 | 
12 | LKKLCRIAKKLCRI-NH2 [LI14-A8, Ala substitute of LI14, position 8] | 64 | 128 | 16 | 8 | 
13 | LKKLCRILAKLCRI-NH2 [LI14-A9, Ala substitute of LI14, position 9] | 16 | 16 | 8-16 | 4 | 
14 | LKKLCRILKALCRI-NH2 [LI14-A10, Ala substitute of LI14, position 10] | 16 | 16-32 | 16-32 | 8 | 
15 | LKKLCRILKKACRI-NH2 [LI14-A11, Ala substitute of LI14, position 11] | 64 | 64 | 16 | 8 | 
16 | LKKLCRILKKLARI-NH2 [LI14-A12] | 16 | 8 | 2 | 4 | 
17 | LKKLCRILKKLCAI-NH2 [LI14-A13, Ala substitute of LI14, position 13] | 16 | 16 | 8 | 4 | 
18 | LKKLCRILKKLCRA-NH2 [LI14-A14, Ala substitute of LI14, position 14] | 32 | 16 | 16 | 4 | 
